The source of these data is patent publication US10538520B2, “Benzamide and nicotinamide compounds and methods of using same” (OncoTartis Inc., priority 2013, dated 2020).

In one assay the test system is MV4-11. Put plainly: Cytotoxicity towards MV4-11 cell line. In kind it is cell-based. The settings on record: Homo sapiens. Here is the method:
(§1) In various embodiments, the compounds of the disclosure are those in which show IC50 values in cytotoxicity experiments towards cells lines MV4-11 and U937 of >20 μM, 10-20 μM, 5-10 μM, 1-5 μM, or <1 μM.
(§2) The IC50 is divided into 5 categories: A<1 μM, B 1-5 μM, C 5-10 μM, D 10-20 μM, and E>20 μM.

In a further assay the test system is U-937. Put plainly: Cytotoxicity towards U-937 cell line. In kind it is cell-based. Conditions: Homo sapiens. As for the experimental part:
as §1, §2

By IC50 is commonly meant the point on the concentration scale where inhibition reaches its midpoint. A low value points to higher potency. Consider `O=C(NCCCc1cn[nH]c1)c1ccc(N2CCC(C(F)(F)F)CC2)c(C#Cc2ccc(F)cc2)c1` [TT-03591], for which the concentration for half-maximal inhibition (IC50) in the assay with MV4-11 and with U-937 was < 1000 nM throughout.

In the case of `O=C(NCCCc1cn[nH]c1)c1ccc(N2CCCCC2CCO)c(C#Cc2ccc(F)cc2)c1` (stereo not shown) [TT-03592], the IC50 in the assay with MV4-11 and in the assay on U-937 was < 1000 nM in each case.

Turning to `CN(C)CC1(O)CCN(c2ccc(C(=O)NCCCc3cn[nH]c3)cc2C#Cc2ccc(F)cc2)C1` (stereo not shown) [TT-03594], the IC50 with MV4-11 and in the assay on U-937 was < 1000 nM in each case.

As to `O=C(NCCCc1cn[nH]c1)c1ccc(N2CCCC(CO)C2)c(C#Cc2ccc(F)cc2)c1` (stereo not shown) [TT-03595], the IC50 with MV4-11 and in the assay on U-937 was < 1000 nM each time.

On to `CC(C)(C)OC(=O)N1CCN(c2ccc(C(=O)NCCCc3cn[nH]c3)cc2C#Cc2ccc(F)cc2)CC1` [TT-03596], for which the IC50 with MV4-11 and with U-937 was < 1000 nM each time.

On to `O=C(NCCCc1cn[nH]c1)c1ccc(N2CCNCC2)c(C#Cc2ccc(F)cc2)c1` [TT-03597], for which the IC50 with MV4-11 and in the assay with U-937 was < 1000 nM in each case.

On to `CN1CCN(c2ccc(C(=O)NCCCc3cn[nH]c3)cc2C#Cc2ccc(F)cc2)CC1` [TT-03598], for which the IC50 with MV4-11 and in the assay with U-937 was < 1000 nM throughout.

As to `CC(=O)N1CCN(c2ccc(C(=O)NCCCc3cn[nH]c3)cc2C#Cc2ccc(F)cc2)CC1` [TT-03599], the IC50 in the assay with MV4-11 and in the assay on U-937 was < 1000 nM in each case.

For `Cc1nccn1-c1ccc(C(=O)NCCCc2cn[nH]c2)cc1C#Cc1ccc(F)cc1` [TT-03602], the IC50 with MV4-11 and in the assay with U-937 was < 1000 nM in each case.

Turning to `O=C(NCCCc1cn[nH]c1)c1ccc(-n2cccn2)c(C#Cc2cccc(N3CCCC3)n2)c1` [TT-03611], the IC50 in the assay with MV4-11 and in the assay on U-937 was < 1000 nM in each case.

Consider `O=C(NCCCc1cn[nH]c1)c1ccc(-n2cccn2)c(C#Cc2ccc3nccn3c2)c1` [TT-03620], for which the IC50 in the assay with MV4-11 and in the assay with U-937 was < 1000 nM throughout.

Turning to `CN(C)c1cccc(C#Cc2cc(C(=O)NCCCc3cn[nH]c3)ccc2-n2cccn2)n1` [TT-03623], the IC50 in the assay with MV4-11 and with U-937 was < 1000 nM throughout.

In the case of `NC(=O)c1cccc(C#Cc2cc(C(=O)NCCCc3cn[nH]c3)ccc2-n2cccn2)c1` [TT-03625], the IC50 with MV4-11 and with U-937 was < 1000 nM in each case.

As to `Cc1nn(-c2ccc(C(=O)NCCCc3cn[nH]c3)cc2C#Cc2ccccc2)c(C)c1C` [TT-03626], the IC50 in the assay on MV4-11 and with U-937 was < 1000 nM each time.

Consider `O=C(NCCCc1cn[nH]c1)c1ccc(-n2ccnc2)c(C#Cc2ccc(F)cc2)c1` [TT-03627], for which the IC50 with MV4-11 and in the assay with U-937 was < 1000 nM in each case.

Turning to `Cn1cc(CCCNC(=O)c2ccc(-n3cccn3)c(C#Cc3ccc(F)cc3)c2)cn1` [TT-03630], the IC50 in the assay with MV4-11 and with U-937 was < 1000 nM in each case.

Turning to `O=C(NCCCc1cn[nH]c1)c1ccc(N2CCOCC2)c(C#Cc2ccncc2)c1` [TT-03631], the IC50 in the assay on MV4-11 and in the assay on U-937 was < 1000 nM throughout.

As for `O=C(NCCCc1cn[nH]c1)c1ccc(N2CCOCC2)c(C#Cc2ccc(F)cn2)c1` [TT-03633], the IC50 in the assay on MV4-11 and with U-937 was < 1000 nM throughout.

Regarding `O=C(NCCCc1cn[nH]c1)c1ccc(-n2cnnc2)c(C#Cc2ccc(F)cc2)c1` [TT-03634], the IC50 in the assay with MV4-11 and in the assay with U-937 was < 1000 nM throughout.

For the compound `O=C(NCCCc1cn[nH]c1)c1ccc(N2CCOCC2)c(C#Cc2ccc(Cl)nc2)c1` [TT-03655], the IC50 in the assay with MV4-11 and in the assay on U-937 was < 1000 nM throughout.

As to `O=C(NCCCc1cn[nH]c1)c1ccc(N2CCOC(CN3CCCCC3)C2)c(C#Cc2ccc(F)cc2)c1` (stereo not shown) [TT-03669], the IC50 in the assay with MV4-11 and in the assay on U-937 was < 1000 nM throughout.

`C[C@@H]1CN(c2ccc(C(=O)NCCCc3cn[nH]c3)cc2C#Cc2ccc(F)cc2)C[C@H](C)O1` [TT-03670]: the IC50 in the assay on MV4-11 and with U-937 was < 1000 nM in each case.

For the compound `O=C1CN(c2ccc(C(=O)NCCCc3cn[nH]c3)cc2C#Cc2ccc(F)cc2)CCN1` [TT-03671], the IC50 in the assay on MV4-11 and with U-937 was < 1000 nM throughout.
